Data: ChEMBL document CHEMBL1124275, “Synthesis and evaluation of multisubstrate inhibitors of an oncogene-encoded tyrosine-specific protein kinase. 1” (J Med Chem, 1988)

How the values were obtained:
[1] = target: T1, Tyrosine-protein kinase transforming protein Abl (Abelson murine leukemia virus, UniProt P00521); assay: Inhibition of p60-vabl tyrosine kinase isolated from Abelson murine leukemia virus (A-MuLV)
T1 sequence (P00521 whole entry): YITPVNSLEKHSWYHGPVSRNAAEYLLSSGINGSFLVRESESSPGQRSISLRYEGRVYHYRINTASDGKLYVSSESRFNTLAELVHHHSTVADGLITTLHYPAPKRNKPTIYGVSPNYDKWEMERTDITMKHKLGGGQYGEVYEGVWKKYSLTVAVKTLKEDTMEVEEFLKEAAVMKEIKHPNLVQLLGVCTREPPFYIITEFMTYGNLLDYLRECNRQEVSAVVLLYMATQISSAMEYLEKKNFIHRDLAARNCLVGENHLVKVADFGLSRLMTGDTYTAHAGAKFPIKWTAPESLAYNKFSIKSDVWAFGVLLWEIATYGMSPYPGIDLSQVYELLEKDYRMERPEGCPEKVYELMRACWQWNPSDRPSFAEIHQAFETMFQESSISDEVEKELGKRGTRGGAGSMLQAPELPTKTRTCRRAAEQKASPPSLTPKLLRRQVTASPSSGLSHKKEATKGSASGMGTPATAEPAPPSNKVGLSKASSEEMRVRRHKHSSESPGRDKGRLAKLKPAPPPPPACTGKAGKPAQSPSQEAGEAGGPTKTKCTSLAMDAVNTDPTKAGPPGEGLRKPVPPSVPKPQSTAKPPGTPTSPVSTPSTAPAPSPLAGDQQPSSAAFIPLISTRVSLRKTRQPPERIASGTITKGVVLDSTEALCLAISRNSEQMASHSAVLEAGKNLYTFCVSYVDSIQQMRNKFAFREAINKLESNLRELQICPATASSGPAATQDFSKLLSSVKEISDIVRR

[2] = Inhibition of Phosphorylase (serine) Kinase activity

| SMILES | IC50 [1] | IC50 [2] |
| --- | --- | --- |
| Nc1ncnc2c1ncn2[C@@H]1O[C@H](COC(=O)c2ccc(S(=O)(=O)NCCCc3ccccc3)cc2)[C@@H](O)[C@H]1O | 56 µM | 50 µM |
| Nc1ncnc2c1ncn2[C@@H]1O[C@H](COC(=O)c2ccc(S(=O)(=O)NCc3ccccc3)cc2)[C@@H](O)[C@H]1O | 45 µM | – |
| Nc1ncnc2c1ncn2[C@@H]1O[C@H](COC(=O)c2ccc(S(N)(=O)=O)cc2)[C@@H](O)[C@H]1O | 120 µM | 60 µM |
| CC(=O)NC(Cc1ccc(OS(=O)(=O)c2ccc(C(=O)OC[C@H]3O[C@@H](n4cnc5c(N)ncnc54)[C@H](O)[C@@H]3O)cc2)cc1)C(N)=O (some centres undefined) | 120 µM | – |
| Nc1ncnc2c1ncn2[C@@H]1O[C@H](COC(=O)c2ccc(S(=O)(=O)Nc3ccccc3)cc2)[C@@H](O)[C@H]1O | 19 µM | 25 µM |
| CS(=O)(=O)c1ccc(C(=O)OC[C@H]2O[C@@H](n3cnc4c(N)ncnc43)[C@H](O)[C@@H]2O)cc1 | 63 µM | – |
| Nc1ncnc2c1ncn2[C@@H]1O[C@H](COC(=O)c2ccc(S(=O)(=O)Oc3ccccc3)cc2)[C@@H](O)[C@H]1O | 170 µM | 80 µM |
| Nc1ncnc2c1ncn2[C@@H]1O[C@H](COC(=O)c2ccc(S(=O)(=O)F)cc2)[C@@H](O)[C@H]1O | 150 µM | 250 µM |
| Nc1ncnc2c1ncn2[C@@H]1O[C@H](COC(=O)c2ccc(S(=O)(=O)NCCc3ccccc3)cc2)[C@@H](O)[C@H]1O | 50 µM | – |
